Broadly, the Ki is the equilibrium dissociation constant of an inhibitor or competing ligand from its target. As a reminder, the inhibition is the share of the control response that was lost under treatment.

Each structure is given as a SMILES string. Where two headings read alike, the source gives them in different places. Bounds are passed on as bounds.

Experiment [1] deals with T1, CB1 receptor (Homo sapiens, UniProt P21554). Briefly: cAMP Assay #2: Hit Hunter cAMP assay, Gi-coupled agonist activity, CB1. In kind it is cell-based. The arrangement: host or cells: PathHunter cell lines. The procedure: (§1) Compounds of the invention were assayed in the Hit Hunter® cAMP assay to determine Gi-coupled agonist activity on the CB1 and CB2 receptors, the results of which are provided in Table 5.
(§2) The Hit Hunter® cAMP assay monitors the activation of a GPCR via Gi and […] secondary messenger signaling in a homogenous, non-imaging assay format using a technology developed by DiscoverX called Enzyme Fragment Complementation (EFC) with β-galactosidase (β-Gal) as the functional reporter. […] ED is fused to cAMP and in the assay competes with cAMP generated by cells for binding to a cAMP-specific antibody. Active β-Gal is formed by complementation of exogenous EA to any unbound ED cAMP. Active enzymes can then convert a chemiluminescent substrate, generating an output signal detectable on a standard microplate reader.
(§3) cAMP Hunter cell lines were expanded from freezer stocks according to standard procedures. Cells were seeded in a total volume of 20 μL into white walled, 384-well microplates and incubated at 37° C. for the appropriate time prior to testing. cAMP modulation was determined using the DiscoverX Hit Hunter cAMP XS+ assay. For Gi agonist activity determination, cells were incubated with sample in the presence of EC80 forskolin to induce response (20 μM and 25 μM in the CB1 and CB2 assays, respectively). Media was aspirated from cells and replaced with 15 μL 2:1 HBSS/10 mM HEPES:cAMP XS+Ab reagent.
(§4) Intermediate dilution of sample stocks was performed to generate 4× sample in assay buffer. 5 μL of 4× compound was added to cells and incubated at 37° C. or room temperature for 30 or 60 minutes. Final vehicle concentration was 1%. Assay signal was generated through incubation with 20 μL cAMP XS+ED/CL lysis cocktail for one hour at room temperature. Microplates were read following signal generation with a PerkinElmer Envision™ instrument for chemiluminescent signal detection. Compound activity was analyzed using CBIS data analysis suite (Chem Innovation, CA). For agonist assays, percentage activity was calculated using the following formula: % Activity=100%×(1−(mean RLU of test sample−mean RLU of Max control ligand)/(mean RLU of vehicle control−mean RLU of Max control ligand). Control ligand was the non-selective CB1/CB2 agonist CP55,940.

Experiment [2] deals with T2, CB2 receptor (Homo sapiens, UniProt P34972). In words: cAMP Assay #2: Hit Hunter cAMP assay, Gi-coupled agonist activity, CB2. In kind it is cell-based. Set-up: host or cells: cAMP Hunter cell lines. The following applies: for CB2 fold selectivity: CB1 EC50 / CB2 EC50. The procedure: as §1, §2, §3, §4
A general note: Cyclic AMP is a second messenger, typically raised through Gs and lowered through Gi signalling.

For experiment [3], the target named is T1, CB1 receptor. Briefly: CB1 competitive radioligand binding assay ([3H] SR141716A). Set-up: expressed in transfected cells; host or cells: Chem-1 cells. The note with it: for inhibition at 0.5 µM: 0.5 μM compound, 2.0 nM [3H] SR141716A, 90 min 37° C. The procedure: (§5) J Med Chem. 41(26): 5177-5187 (1998); and Munro S., et al. Molecular characterization of a peripheral receptor for cannabinoids. Nature 365:61-65 (1993).
CB1 Radioligand Binding Assay: A compound of the invention (0.5 μM in 1% DMSO) was incubated with Chem-1 cells expressing human recombinant CB1 receptor in buffer (50 mM HEPES, pH 7.4, 5 mM MgCl2, 1 mM CaCl2, 0.2% BSA) for 90 minutes at 37° C. in the presence of 2.0 nM [H^3] SR141716A (CB1 radioligand). % Inhibition was determined as a function of radioligand binding to the CB1 receptor.

Experiment [4] has as its target T1, CB1 receptor. In words: cell-based. The arrangement: host or cells: PathHunter cell lines. The procedure:
(§6) The PathHunter® β-Arrestin assay monitors the activation of a GPCR in a homogenous, non-imaging assay format using a technology developed by DiscoverX called Enzyme Fragment Complementation (EFC) with β-galactosidase (3-Gal) as the functional reporter. […] EA is fused to β-Arrestin and PK is fused to the GPCR of interest.
(§7) PathHunter cell lines were expanded from freezer stocks according to standard procedures. Cells were seeded in a total volume of 20 μL into white walled, 384-well microplates and incubated at 37° C. for the appropriate time prior to testing. For agonist activity determination, cells were incubated with sample to induce response. Intermediate dilution of sample stocks was performed to generate 5× sample in assay buffer. 5 μL of 5× sample was added to cells and incubated at 37° C. or room temperature for 90 to 180 minutes. Vehicle concentration was 1%. Assay signal was generated through a single addition of 12.5 or 15 μL (50% v/v) of PathHunter Detection reagent cocktail, followed by a one hour incubation at room temperature. Microplates were read following signal generation with a PerkinElmer Envision™ instrument for chemiluminescent signal detection. Compound activity was analyzed using CBIS data analysis suite (ChemInnovation, CA). For agonist assays, percentage activity was calculated using the following formula: % Activity=100%×(mean RLU of test sample− mean RLU of vehicle control)/(mean MAX control ligand− mean RLU of vehicle control).

In experiment [5] the target is T2, CB2 receptor. Briefly: cell-based. Set-up: host or cells: cAMP Hunter cell lines. The procedure: as §6, §7
The target in experiment [6] is T2, CB2 receptor. Briefly: CB2 competitive radioligand binding assay ([3H] WIN-55,212-2). The arrangement: expressed in transfected cells; host or cells: CHO-K1 cells. The note with it: for inhibition at 0.05 µM: 0.05 μM compound, 2.4 nM [3H] WIN-55,212-2, 90 min 37° C. The procedure: as §5
CB2 Radioligand Binding Assay: A compound of the invention (0.05 μM in 1% DMSO) was incubated with CHO-K1 cells expressing human recombinant CB2 receptor in buffer (20 mM HEPES, pH 7.0, 0.5% BSA) for 90 minutes at 37° C. in the presence of 2.4 nM [H^3] WIN-55,212-2 (CB2 radioligand). % Inhibition was determined as a function of radioligand binding to the […].

Setting [7] is: PathHunter agonist mode, read-out: CB2 Activity (β-Arrestin).
Setting [8] is: Hit Hunter cAMP, 20 μM forskolin, control ligand CP55,940, read-out: CB1, EC50.
Where [9] appears, read: Hit Hunter cAMP, 25 μM forskolin, control ligand CP55,940, read-out: CB2, EC50.
The mark [10] stands for this setting: PathHunter agonist mode, read-out: CB1 Activity (β-Arrestin).

T2 sequence (P34972 whole entry): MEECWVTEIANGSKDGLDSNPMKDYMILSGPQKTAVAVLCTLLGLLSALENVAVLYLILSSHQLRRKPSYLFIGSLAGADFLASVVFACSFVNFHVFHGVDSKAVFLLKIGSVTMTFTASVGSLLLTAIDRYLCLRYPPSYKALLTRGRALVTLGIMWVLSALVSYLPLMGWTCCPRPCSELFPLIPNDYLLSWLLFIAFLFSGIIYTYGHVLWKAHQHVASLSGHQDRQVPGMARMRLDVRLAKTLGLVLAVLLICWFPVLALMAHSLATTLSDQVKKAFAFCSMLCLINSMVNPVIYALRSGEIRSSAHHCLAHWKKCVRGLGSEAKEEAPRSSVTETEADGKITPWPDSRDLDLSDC
T1 sequence (P21554 whole entry, the tested form may be a part): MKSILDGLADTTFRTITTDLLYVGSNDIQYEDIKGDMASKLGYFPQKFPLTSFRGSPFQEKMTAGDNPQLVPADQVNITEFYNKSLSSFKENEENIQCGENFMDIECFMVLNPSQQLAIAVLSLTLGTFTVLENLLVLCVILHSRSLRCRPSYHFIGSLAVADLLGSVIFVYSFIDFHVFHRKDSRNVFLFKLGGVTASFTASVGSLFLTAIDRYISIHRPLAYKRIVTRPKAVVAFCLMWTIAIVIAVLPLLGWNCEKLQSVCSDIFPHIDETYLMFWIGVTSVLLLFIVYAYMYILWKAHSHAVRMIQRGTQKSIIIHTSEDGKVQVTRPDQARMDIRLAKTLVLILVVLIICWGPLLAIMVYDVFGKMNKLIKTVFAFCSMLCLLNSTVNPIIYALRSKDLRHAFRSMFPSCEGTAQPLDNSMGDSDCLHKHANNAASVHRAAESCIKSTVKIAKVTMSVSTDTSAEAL

As for `CCCCCCC(C)(C)c1cc(O)c2c(c1)OC(C)(C)[C@@H]1CC=C(C(=O)NC(C)(C)C)C[C@@H]21` [Compound 95, (6aR,10aR)-N-(tert-butyl)-1-hydroxy-6,6-dimethyl-3-(2-methyloctan-2-yl)-6a,7,10,10a-tetrahydro-6H-benzo[c]chromene-9-carboxamide], the EC50 on CB1 receptor [1] was determined as 13.2 nM; at CB2 receptor [2], 1.2 nM; on CB1 receptor [4], 23.9 nM; on CB2 receptor [5] (setting [7]), 1.3 nM. Besides, on CB2 receptor [2] (Hit Hunter cAMP), the CB2 fold selectivity was 11.0. Also, the Ki on CB1 receptor [3] is 31.1 nM; at CB2 receptor [6], 3.2 nM. Moreover, the “Fold Selectivity (CB1/CB2)” value on CB2 receptor [6] (Table 3, ratio of Ki CB1/CB2) was determined as 9.7.
Regarding `CCCCCCC(C)(C)c1cc(O)c2c(c1)OC(C)(C)[C@@H]1CC=C(C(=O)NO)C[C@@H]21` [Compound 105, (6aR,10aR)-N,1-dihydroxy-6,6-dimethyl-3-(2-methyloctan-2-yl)-6a,7,10,10a-tetrahydro-6H-benzo[c]chromene-9-carboxamide], the EC50 is 11.4 nM on CB1 receptor [1], 11.2 nM on CB2 receptor [2], 75.6 nM on CB1 receptor [4] and 3.7 nM on CB2 receptor [5] (setting [7]). The same molecule displayed a CB2 fold selectivity at CB2 receptor [2] (Hit Hunter cAMP) of 1.0. Moreover, the Ki is 9.2 nM at CB1 receptor [3] and 24.1 nM at CB2 receptor [6]. The “Fold Selectivity (CB1/CB2)” value at CB2 receptor [6] (Table 3, ratio of Ki CB1/CB2) came to 0.4.
With `CCCCCCC(C)(C)c1cc(O)c2c(c1)OC(C)(C)[C@@H]1CC=C(C(=O)NC3CCCCC3)C[C@@H]21` [Compound 16, (6aR,10aR)—N-Cyclohexyl-1-hydroxy-6,6-dimethyl-3-(2-methyloctan-2-yl)-6a,7,10,10a-tetrahydro-6H-benzo[c]chromene-9-carboxamide], the EC50 is greater than 3000 nM at CB1 receptor [1] (setting [8]), 2.7 nM on CB2 receptor [2] (setting [9]), greater than 3000 nM on CB1 receptor [4] (setting [10]) and 5 nM on CB2 receptor [5] (setting [7]). The same molecule gave a CB2 fold selectivity at CB2 receptor [2] (Hit Hunter cAMP) greater than 1000. On CB1 receptor [3], this molecule displayed an inhibition at 0.5 µM of 84%. The Ki was determined as 94 nM on CB1 receptor [3] (Table 2, read-out: CB1 Binding Ki) and 26 nM at CB2 receptor [6] (Table 2, read-out: CB2 Binding Ki). Besides, on CB2 receptor [6], 0.05 µM produced 57% inhibition. Further, on CB2 receptor [6] (Table 2, ratio of Ki CB1/CB2), the “Fold Selectivity (CB1/CB2)” value came to 4.
Take `CCCCCCC(C)(C)c1cc(O)c2c(c1)OC(C)(C)[C@@H]1CC=C(C(=O)NOCCO)C[C@@H]21` [Compound 41]: the EC50 was found to be 6.3 nM on CB1 receptor [1] (setting [8]), 1.5 nM at CB2 receptor [2] (setting [9]), 37.8 nM on CB1 receptor [4] (setting [10]) and 1.8 nM on CB2 receptor [5] (setting [7]). At CB2 receptor [2] (Hit Hunter cAMP), this molecule displayed a CB2 fold selectivity of 4.3. The Ki at CB1 receptor [3] (Table 3, read-out: Ki CB1) was 27.4 nM; at CB2 receptor [6] (Table 3, read-out: Ki CB2), 4.3 nM. Moreover, at CB2 receptor [6] (Table 3, ratio of Ki CB1/CB2), the “Fold Selectivity (CB1/CB2)” value is listed as 6.4.
As for `CCCCCCC(C)(C)c1cc(O)c2c(c1)OC(C)(C)[C@@H]1CC=C(C(=O)N[C@H]3C[C@@H](O)C3)C[C@@H]21` [Compound 46, (6aR,10aR)-1-hydroxy-N-((1 S,3S)-3-hydroxycyclobutyl)-6,6-dimethyl-3-(2-methyloctan-2-yl)-6a,7,10,10a-tetrahydro-6H-benzo[c]chromene-9-carboxamide], the EC50 at CB1 receptor [1] came out at 263 nM; at CB2 receptor [2], 8.4 nM; at CB1 receptor [4], 6000 nM; at CB2 receptor [5] (setting [7]) it was 3.6 nM. At CB2 receptor [2] (Hit Hunter cAMP), this molecule registered a CB2 fold selectivity of 31.4. In addition, the figures for the Ki at CB1 receptor [3] and at CB2 receptor [6] were 90.3 nM and 22.9 nM, respectively. Also, the “Fold Selectivity (CB1/CB2)” value at CB2 receptor [6] (Table 3, ratio of Ki CB1/CB2) worked out at 3.9.
In the case of `CCCCCCC(C)(C)c1cc(O)c2c(c1)OC(C)(C)[C@@H]1CC=C(C(=O)NN3CCCCC3)C[C@@H]21` [Compound 48, (6aR,10aR)-1-hydroxy-6,6-dimethyl-3-(2-methyloctan-2-yl)-N-(piperidin-1-yl)-6a,7,10,10a-tetrahydro-6H-benzo[c]chromene-9-carboxamide], the EC50 at CB1 receptor [1] was greater than 3000 nM; at CB2 receptor [2], 7 nM; at CB1 receptor [4], greater than 3000 nM; at CB2 receptor [5] (setting [7]), 4.4 nM. The CB2 fold selectivity on CB2 receptor [2] (Hit Hunter cAMP) is given as greater than 428. The Ki on CB1 receptor [3] amounted to 233 nM; on CB2 receptor [6], 9.2 nM. Besides, at CB2 receptor [6] (Table 3, ratio of Ki CB1/CB2), the “Fold Selectivity (CB1/CB2)” value was 25.3.
As to `CCCCCCC(C)(C)c1cc(O)c2c(c1)OC(C)(C)[C@@H]1CC=C(C(=O)N[C@H](C)C(=O)O)C[C@@H]21` [Compound 2, ((6aR,10aR)-1-Hydroxy-6,6-dimethyl-3-(2-methyloctan-2-yl)-6a,7,10,10a-tetrahydro-6H-benzo[c]chromene-9-carbonyl)-D-alanine], 0.5 µM produced 9% inhibition on CB1 receptor [3]. For the same molecule, the EC50 on CB1 receptor [4] (setting [10]) and at CB2 receptor [5] (setting [7]) was greater than 3000 nM throughout. The molecule further gave an inhibition at 0.05 µM on CB2 receptor [6] of 0%.
As for `CCCCCCC(C)(C)c1cc(O)c2c(c1)OC(C)(C)[C@@H]1CC=C(C#N)C[C@@H]21` [Compound 112, (6aR,10aR)-1-hydroxy-6,6-dimethyl-3-(2-methyloctan-2-yl)-6a,7,10,10a-tetrahydro-6H-benzo[c]chromene-9-carbonitrile], the Ki is 1 nM on CB1 receptor [3] and 0.7 nM at CB2 receptor [6]. Further, the EC50 at CB1 receptor [4] (setting [10]) was 2 nM; at CB2 receptor [5] (setting [7]), 1.4 nM. Moreover, the “Fold Selectivity (CB1/CB2)” value at CB2 receptor [6] (Table 3, ratio of Ki CB1/CB2) was 1.4.
For `CCCC(C)(C)c1cc(O)c2c(c1)OC(C)(C)[C@@H]1CC=C(C(=O)NC3CCCC3)C[C@@H]21` [Compound 97, (6aR,10aR)-N-cyclopentyl-1-hydroxy-6,6-dimethyl-3-(2-methylpentan-2-yl)-6a,7,10,10a-tetrahydro-6H-benzo[c]chromene-9-carboxamide], the Ki at CB1 receptor [3] stood at 780 nM; on CB2 receptor [6], 72 nM. Moreover, the EC50 was greater than 3000 nM on CB1 receptor [4] and 17.9 nM at CB2 receptor [5]. Moreover, on CB2 receptor [6] (Table 3, ratio of Ki CB1/CB2), the “Fold Selectivity (CB1/CB2)” value came out at 10.8.

The values above are taken from patent publication US20210284621A1 (priority 2018, published 2021).
